Activity calls are given as the source filed them. No cut-off for these calls is given here. Residues, ends and D or L forms follow the SMILES beside them. *: point of attachment. Myristoyl = CCCCCCCCCCCCCC(=O)*; Lauroyl = CCCCCCCCCCCC(=O)*
Columns and labels:
Staphylococcus aureus [1] = test: Antimicrobial activity against Staphylococcus aureus ATCC 25923 assessed as reduction in bacterial growth at 0.5 times MIC preincubated for 4 hrs followed by replating on MHB agar and measured after 24 hrs by time kill assay; type: functional, organism-based; details: time 28.0 hrs
Staphylococcus aureus [2] = test: Antimicrobial activity against Staphylococcus aureus ATCC 25923 infected in neutropenia BALB/c mouse assessed as reduction in lung bacterial load at 10 mg/kg, ip administered staring from 2 hrs post infection and measured 8 hrs post-infected in presence of ciprofloxacin; type: functional, organism-based; details: time 6.0 hrs
[3] = Toxicity in BALB/c mouse assessed as effect on motility at 80 mg/kg, ip administered as single dose measured for 5 days; type: organism-based; details: in vivo, 120 h, time 5 day

SMILES	Activity (Staphylococcus aureus [1])	Activity (Staphylococcus aureus [2])	Activity [3]
CCCCCCCCCCCC(=O)N[C@@H](CCCNC(=N)N)C(=O)N[C@@H](CCCNC(=N)N)C(=O)N[C@@H](Cc1c[nH]c2ccccc12)C(N)=O (Lauroyl-Arg-Arg-Trp-NH2)	Active		
CCCCCCCCCCCCCC(=O)N[C@@H](CCCNC(=N)N)C(=O)N[C@@H](Cc1c[nH]c2ccccc12)C(=O)N[C@@H](Cc1c[nH]c2ccccc12)C(N)=O (Myristoyl-Arg-Trp-Trp-NH2)		Active	Toxic
